Patent publication US12194027B2, “Small molecule inhibitors of GPCR GPR68 and related receptors for treating cancer, glioblastoma, and other indications” (UNIVERSITY OF MARYLAND, BALTIMORE, priority 2019, dated 2025)

Tests used:
U87 cells = test: U87 viability with temozolomide plus OGM2; assay type: cell-based; conditions: 0.5 μM or 5 μM OGM2 with increasing TMZ
Procedure: U87 cells were treated with increasing concentrations of temozolomide (TMZ) without OGM2 or with 0.5 μM or 5 μM OGM2.

[1] = test system: U87 glioblastoma spheroids; test: matrix invasion of U87 spheroids in Matrigel, acidified media; assay type: cell-based
Description: U87 glioblastoma spheroids were formed in low attachment round bottom plates for 3 days. Spheroids were then covered in Matrigel™, which was allowed to polymerize before treatment with acidified media with or without OGM2. Acidification increased the degree of matrix invasion which is attenuated by OGM2.

breast (MDA MB231) = test: viability (cell titer blue), breast cancer cells; assay type: cell-based; conditions: MDA MB231, 72 hours
Procedure: (§1) Multiple studies were conducted as discussed herein, but with different cancer type cohorts. Data was extracted from Gene expression omnibus using ProggeneV2. Briefly, probes were prepared using standard Affymetrix™ protocols, and hybridized to Affymetrix™ HG-U133A and HG-U133B arrays. The cohort was separated by High and low expression of GPR68 by above or below the median expression level. Survival of the cohorts was plotted in FIG. 26A. Survival of multiple cancer types including breast (MDA MB231), glioblastoma (U87), and Prostatic Neuroendocrine cancer (PNEC: PC3) is shown in FIG. 26B. Cells were plated in 96-well plates and then treated with increasing doses OGM2. Seventy-two hours later, survival was assayed with cell titer blue. Each cell line was normalized to DMSO treated control.

Spheroids = test: pH dependent tumoroid growth; assay type: cell-based; conditions: pH 6.2 vs pH 8 buffered media, 3 days
Procedure: Spheroids were formed over 3 days using low attachment 96-well round bottom plates and then treated with DMSO or OGM2 in either pH 8 buffered media or pH 6.2 buffered media and grown for 3 days. The size (area) of spheroids was measured in relative area units. […] This increase in growth was abrogated by OGM2.

[2] = test system: Prostatic Neuroendocrine cancer (PNEC: PC3); test: viability (cell titer blue), prostate cancer cells; assay type: cell-based; conditions: PC3, 72 hours
Procedure: as §1

GPR68 [3] = molecular target: T1, GPR68 (Homo sapiens (Human), UniProt Q15743); test: Chem-1 OGR1/GPR68 recovery assay after inhibitor washout; assay type: cell-based
Procedure: Chem-1 OGR1/GPR68 cells from Millipore™ (St. Louis, MO) were plated in 96-well format and stained with Fluo-8. Using the Lionheart FX (Biotek™) a baseline for 3 seconds was observed before the medium was acidified using an automated injector to reach pH 6.8. Cells then were dynamically monitored and change in fluorescence was quantified using Gen5 software (Biotek™). Pretreatment of 10 μM OGM2 for 4 hours was used. Each well was only assayed once at the correct time interval after inhibitor removal.
(§2) Chem1-GPR68 reporter cells were treated with 20 uM OM8345 for 2 hours and then rinsed with HBSS. […] The GPR68 inhibitory activity of OGM analogs segregated with the ability of the molecule to induce the phenotype in zebrafish. Neural crest progenitors labeled with In situ hybridization of FoxD3 show normal formation of the progenitor pool.
Additional experiments, OGM2 resynthesized and used (due to its submicromolar potency and GPR68 specificity) were performed. See FIG. 3A (HNMR of resynthesis of OGM2) and FIG. 3B (LCMS of resynthesis of OGM2). To test the possibility of OGM2 being an irreversible inhibitor, Chem1-OGR1 cells (Millipore™) were incubated with 10 μM OGM2 for 4 hours, and after removing the compound stimulated with pH 6.4 medium. […] Time till 50% max ˜52 minutes. The signal returned back towards baseline uninhibited levels in a rapid and time-dependent manner.

A549 lung cancer cells [4] = test: A549 clonogenicity (crystal violet); assay type: cell-based; conditions: 8 days
Procedure: A549 lung cancer cells were plated at 300 cells per well in a 6-well plate and on the next day were treated with increasing concentrations of OGM2 for 8 days. The plate was fixed with formalin and stained with crystal violet. See FIG. 25B for results at the indicated concentrations.

GPR68 [5] = molecular target: T1, GPR68; test: GPR68 inhibitory activity of OGM analogs (Table 5); assay type: cell-based
Procedure: GPCR profiling assays were performed by Millipore (St. Louis, MO) using in cells expressing Gα15, a promiscuous G protein that enhances GPCR coupling to downstream Ca2+ signaling pathways.
Since GPCRs represent >30% of targets for FDA-approved small molecules and are known to modulate cell migration, activity against 158 GPCRs was assessed based on their chemical structures. GPCRs (158) were tested for agonist and antagonist activity at 10 μM. […] Chemical segregation analysis of zebrafish phenotype was conducted to further identify the inhibitory activity responsible for the zebrafish phenotype. […] The identities of the R groups in FIG. 2B are shown below in Table 5.
as §2

PANC02 pancreatic cells [6] = test: PANC02 scratch migration; assay type: cell-based; conditions: 10 μM, 24 hours
Procedure: In a second study, PANC02 pancreatic cells plated and grown to confluence. Using a P200 tip, cells were denuded and allowed to migrate for 24 hours in DMSO or 10 μM OGM2 and imaged.

U87 glioblastoma cells = test: calcium release on acidification in U87 cells (Fluo-8); assay type: cell-based; conditions: media pH6.4, Fluo-8
Description: GPR68 is known to signal through Gq which results in a calcium flux out of the Endoplasmic reticulum. U87 glioblastoma cells were stained, using a calcium-sensitive vital dye Fluo-8, and stimulated with acidification of the media to pH6.4. The cells respond to the acidification with a burst of calcium release, this is inhibited by OGM2.

GPR68/OGR1 = GPR68/OGR1 (Homo sapiens (Human), UniProt Q15743); test: inhibition of GPR68/OGR1 in CHEM1-OGR1 cells, Fluo-8 calcium response to acidified media; assay type: cell-based; conditions: acidified media pH 6.4, Fluo-8
Procedure: Briefly, the methods were: On the day before the assay 20,000 cells per well of CHEM1-OGR1 cells were plated in 10% DMEM containing 10% FBS and 1% Pen/Strep into a 96 well plate. After 24 hours media was removed and cells were stained with 80 uL Fluo-8 calcium indicator dye according to manufacturer's protocol. After staining cells were treated with 20 uL of 4× concentration of test compounds. Using kinetic imaging in the Lionheart HCS fluorescence intensity was continuously measure at 10 frames per second, for 5 seconds before 100 μL of acidified media was added to the well resulting in a pH of 6.4. A ratio of fluorescence intensities prior to addition and at peak were calculated and averaged. The resulting data were platted and using a 4 parameter logistic regression EC50 for each test compound was determined.

A549 lung cancer cells [7] = test: A549 viability (crystal violet); assay type: cell-based; conditions: 24 hours
Procedure: A549 lung cancer cells were plated at different concentrations of cell per well in a 96-well plate. On the following day cells were treated with increasing doses of OGM2. Twenty-four hours later cells viability was assayed with crystal violet and normalized to untreated.

A2058 melanoma cell line = test: scratch assay for migration, A2058; assay type: cell-based, human; conditions: OGM 5 μM, EIPA 10 μM, 20 hours
Procedure: (§3) Cells were grown to confluence and the cells were denuded with a P200 tip. A medium change was done to add fresh medium, remove loose cells and add compounds OGM (5 μM) and EIPA (10 μM). The area of the scratch was observed 20 hours later.
(§4) Since there are numerous parallels are found between neural crest cells and cancer during migration, we examined whether OGM could inhibit the migration of cells in human melanoma cell lines (Oppitz et al., 2007; Schriek et al., 2005; Sinnberg et al., 2018). […] A2058, MeWo and WM115 cells were grown to confluence and a stripe of cells were denuded with a p200 pipette tip “scratch” and rinsed with PBS. Cells were treated with OGM or EIPA, or DMSO and incubated in low serum media. Imaging was done at 30 minutes after “scratch” and then 20 hours afterwards. Areas were then measured and normalized to the initial area.
(§5) Previous studies with the MV3 melanoma cell line have shown that disruption of proton efflux with EIPA inhibition of NHE1 can also reduce melanoma motility (Ludwig et al., 2013; Schneider et al., 2009; Stock et al., 2007, 2005; Stüwe et al., 2007). […] Although the expression of GPR68 and other proton-sensing receptors have been characterized in various skin cancers (Merkel cell carcinoma, dermatofibrosarcoma protuberans, atypical fibroxanthoma, and pleomorphic dermal sarcoma), expression in melanoma cell lines has not investigated (Nassios et al., 2019).

PANC02 pancreatic cells [8] = test: PANC02 clonogenicity (crystal violet); assay type: cell-based; conditions: 7 days
Procedure: In a third study, PANC02 pancreatic cells were plated at 400 cells per well in a 6-well plate and on the next day were treated with increasing concentrations of OGM2 for 7 days. The plate was fixed with formalin and stained with crystal violet.

WM115 melanoma cell line = test: scratch assay for migration, WM115; assay type: cell-based, human; conditions: OGM 5 μM, EIPA 10 μM, 20 hours
Procedure: as §3, §4, §5

MeWo melanoma cell line = test: scratch assay for migration, MeWo; assay type: cell-based, human; conditions: OGM 5 μM, EIPA 10 μM, 20 hours
Procedure: as §3, §4, §5

T1 sequence (Q15743 whole entry, looked up): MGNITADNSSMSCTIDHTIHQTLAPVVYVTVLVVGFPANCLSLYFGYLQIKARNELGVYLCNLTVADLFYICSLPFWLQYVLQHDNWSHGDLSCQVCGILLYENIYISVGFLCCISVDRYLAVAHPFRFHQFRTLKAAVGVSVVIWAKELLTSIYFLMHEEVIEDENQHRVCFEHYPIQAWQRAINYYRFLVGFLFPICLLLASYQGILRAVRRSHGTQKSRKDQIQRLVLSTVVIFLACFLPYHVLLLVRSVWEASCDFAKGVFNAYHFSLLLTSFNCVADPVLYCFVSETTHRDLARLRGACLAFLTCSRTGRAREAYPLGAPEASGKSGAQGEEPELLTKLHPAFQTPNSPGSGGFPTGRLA
Sequence of GPR68/OGR1 (Q15743 whole entry): as the sequence (Q15743 whole entry, looked up) above

CCc1ccc2c(c1)C1(NN=C(c3ccccc3)S1)C(=O)N2 (centres unmarked) [OGM2]
cell viability in combination with temozolomide (TMZ) (U87 cells): synergistic result | degree of matrix invasion [1]: attenuated | viability (breast (MDA MB231)): Reduces Viability | increase in spheroid growth at pH 6.2 (Spheroids): abrogated | viability [2]: Reduces Viability | recovery of GPR68 activity after washout (GPR68 [3]; 10 μM for 4 hours, then removed): restored rapidly after washout of inhibitor | Time till 50% max (recovery of GPR68 activity) (GPR68 [3]; after 10 μM for 4 hours, washout, pH 6.4 medium): ~52 min | clonogenicity (A549 lung cancer cells [4]): reduced the clonogenicity | IC50 (GPR68 [5]): 710 nM | migration (PANC02 pancreatic cells [6]): significantly reduced migration | calcium release in response to acidification (U87 glioblastoma cells): inhibited | EC50 (GPR68/OGR1): 1350 nM | toxicity (cell viability) (A549 lung cancer cells [7]): relatively High doses of OGM2 are necessary for toxicity | migration in scratch assay (A2058 melanoma cell line): migrated significantly less | clonogenicity (PANC02 pancreatic cells [8]): reduced the clonogenicity | migration in scratch assay (WM115 melanoma cell line): migrated significantly less | migration in scratch assay (MeWo melanoma cell line): migrated significantly less
